Laboratory results published in ChEMBL document CHEMBL5052840, “Pharmaceutical compounds and therapeutic methods” (2020).
Calls of active or inactive are those of the source. The calls are words filed in the database; no cut-off is given here.

Legend:
[1] = Ratio of drug level in male C57BL/6 mouse brain to plasma at 10 mg/kg, ip administered as single dose measured at 3 hrs measured by LC/MS-MS analysis; type: ADME, organism-based; details: read-out: BPR
[2] = Plasma concentration in male C57BL/6 mouse at 10 mg/kg, ip administered as single dose measured at 1 hr measured by LC/MS-MS analysis; type: ADME, organism-based
[3] = Plasma concentration in male C57BL/6 mouse at 10 mg/kg, ip administered as single dose measured at 3 hrs measured by LC/MS-MS analysis; type: ADME, organism-based
[4] = Plasma concentration in male C57BL/6 mouse at 10 mg/kg, ip administered as single dose measured at 0.08 hrs measured by LC/MS-MS analysis; type: ADME, organism-based
[5] = Plasma concentration in male C57BL/6 mouse at 10 mg/kg, po administered as single dose measured at 1 hr measured by LC/MS-MS analysis; type: ADME, organism-based
[6] = Ratio of drug level in male C57BL/6 mouse brain to plasma at 10 mg/kg, iv administered as single dose measured at 0.35 hrs measured by LC/MS-MS analysis; type: ADME, organism-based; details: read-out: BPR
[7] = Brain concentration in male C57BL/6 mouse at 10 mg/kg, ip administered as single dose measured at 24 hrs measured by LC/MS-MS analysis; type: ADME, organism-based; details: read-out: Drug uptake
[8] = Brain concentration in male C57BL/6 mouse at 10 mg/kg, ip administered as single dose measured at 0.08 hrs measured by LC/MS-MS analysis; type: ADME, organism-based; details: read-out: Drug uptake
[9] = Plasma concentration in male C57BL/6 mouse at 10 mg/kg, iv administered as single dose measured at 1 hr measured by LC/MS-MS analysis; type: ADME, organism-based
[10] = Ratio of drug level in male C57BL/6 mouse brain to plasma at 10 mg/kg, iv administered as single dose measured at 0.08 hrs measured by LC/MS-MS analysis; type: ADME, organism-based; details: read-out: BPR
[11] = Brain concentration in male C57BL/6 mouse at 10 mg/kg, ip administered as single dose measured at 6 hrs measured by LC/MS-MS analysis; type: ADME, organism-based; details: read-out: Drug uptake
[12] = Ratio of drug level in male C57BL/6 mouse brain to plasma at 10 mg/kg, ip administered as single dose measured at 1 hr measured by LC/MS-MS analysis; type: ADME, organism-based; details: read-out: BPR
[13] = biological target: T1, Polycomb complex protein BMI-1 (Homo sapiens) (UniProt P35226); assay: Inhibition of BMI1 in human Glioblastoma cell 3D spheres at 7 to 10 nM assessed as reduction in BMI1 protein levels measured by Western blotting method; type: cell-based; details: Glioblastoma cell line, dose 7-10 nM
T1 sequence (whole entry): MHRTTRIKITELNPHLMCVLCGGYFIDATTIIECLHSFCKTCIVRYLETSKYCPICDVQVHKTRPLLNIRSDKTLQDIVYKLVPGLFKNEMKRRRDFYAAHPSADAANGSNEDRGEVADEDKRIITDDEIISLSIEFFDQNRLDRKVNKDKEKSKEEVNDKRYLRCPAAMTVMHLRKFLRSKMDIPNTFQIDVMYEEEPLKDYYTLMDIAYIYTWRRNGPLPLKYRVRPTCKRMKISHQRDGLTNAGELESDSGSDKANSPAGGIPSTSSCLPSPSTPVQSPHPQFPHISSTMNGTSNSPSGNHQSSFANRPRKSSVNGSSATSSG

[14] = biological target: T1, Polycomb complex protein BMI-1 (Homo sapiens); assay: Inhibition of BMI1 in human Glioblastoma cell 3D spheres at 7 to 10 nM assessed as reduction in phospho-RB levels measured by Western blotting method; type: cell-based; details: Glioblastoma cell line, dose 7-10 nM
[15] = Plasma concentration in male C57BL/6 mouse at 10 mg/kg, po administered as single dose measured at 0.35 hrs measured by LC/MS-MS analysis; type: ADME, organism-based
[16] = Brain concentration in male C57BL/6 mouse at 10 mg/kg, ip administered as single dose measured at 12 hrs measured by LC/MS-MS analysis; type: ADME, organism-based; details: read-out: Drug uptake
[17] = Plasma concentration in male C57BL/6 mouse at 10 mg/kg, ip administered as single dose measured at 0.35 hrs measured by LC/MS-MS analysis; type: ADME, organism-based
[18] = Plasma concentration in male C57BL/6 mouse at 10 mg/kg, po administered as single dose measured at 0.08 hrs measured by LC/MS-MS analysis; type: ADME, organism-based
[19] = Ratio of drug level in male C57BL/6 mouse brain to plasma at 10 mg/kg, iv administered as single dose measured at 3 hrs measured by LC/MS-MS analysis; type: ADME, organism-based; details: read-out: BPR
[20] = Brain concentration in male C57BL/6 mouse at 10 mg/kg, iv administered as single dose measured at 0.08 hrs measured by LC/MS-MS analysis; type: ADME, organism-based; details: read-out: Drug uptake
[21] = Ratio of drug level in male C57BL/6 mouse brain to plasma at 10 mg/kg, ip administered as single dose measured at 0.08 hrs measured by LC/MS-MS analysis; type: ADME, organism-based; details: read-out: BPR
[22] = Brain concentration in male C57BL/6 mouse at 10 mg/kg, ip administered as single dose measured at 0.35 hrs measured by LC/MS-MS analysis; type: ADME, organism-based; details: read-out: Drug uptake
[23] = Ratio of drug level in male C57BL/6 mouse brain to plasma at 10 mg/kg, iv administered as single dose measured at 1 hr measured by LC/MS-MS analysis; type: ADME, organism-based; details: read-out: BPR
[24] = Ratio of drug level in male C57BL/6 mouse brain to plasma at 10 mg/kg, iv administered as single dose measured at 6 hrs measured by LC/MS-MS analysis; type: ADME, organism-based; details: read-out: BPR
[25] = Brain concentration in male C57BL/6 mouse at 10 mg/kg, iv administered as single dose measured at 6 hrs measured by LC/MS-MS analysis; type: ADME, organism-based; details: read-out: Drug uptake
[26] = Plasma concentration in male C57BL/6 mouse at 10 mg/kg, po administered as single dose measured at 3 hrs measured by LC/MS-MS analysis; type: ADME, organism-based
[27] = Brain concentration in male C57BL/6 mouse at 10 mg/kg, iv administered as single dose measured at 1 hr measured by LC/MS-MS analysis; type: ADME, organism-based; details: read-out: Drug uptake
[28] = Brain concentration in male C57BL/6 mouse at 10 mg/kg, iv administered as single dose measured at 3 hrs measured by LC/MS-MS analysis; type: ADME, organism-based; details: read-out: Drug uptake
[29] = biological target: T1, Polycomb complex protein BMI-1 (Homo sapiens); assay: Inhibition of BMI1 in human Glioblastoma cell 3D spheres at 7 to 10 nM assessed as reduction in STAT1 levels measured by Western blotting method; type: cell-based; details: Glioblastoma cell line, dose 7-10 nM
[30] = Plasma concentration in male C57BL/6 mouse at 10 mg/kg, iv administered as single dose measured at 0.08 hrs measured by LC/MS-MS analysis; type: ADME, organism-based
[31] = Brain concentration in male C57BL/6 mouse at 10 mg/kg, po administered as single dose measured at 12 hrs measured by LC/MS-MS analysis; type: ADME, organism-based; details: read-out: Drug uptake
[32] = Brain concentration in male C57BL/6 mouse at 10 mg/kg, po administered as single dose measured at 3 hrs measured by LC/MS-MS analysis; type: ADME, organism-based; details: read-out: Drug uptake
[33] = Brain concentration in male C57BL/6 mouse at 10 mg/kg, po administered as single dose measured at 6 hrs measured by LC/MS-MS analysis; type: ADME, organism-based; details: read-out: Drug uptake

Cc1nc2ccccn2c1-c1csc(Nc2ccc3c(c2)OC(F)(F)O3)n1.Cl
Kp at 3 h [1]: 1.6 | concentration at 1 h [2]: 79.1 ng/mL | concentration at 3 h [3]: 1.43 ng/mL | concentration at 0.08 h [4]: 713 ng/mL | concentration at 1 h [5]: 29.3 ng/mL | Kp at 0.35 h [6]: 1.83 | concentration at 24 h [7]: 6.21 ng/g | concentration at 0.08 h [8]: 558 ng/g | concentration at 1 h [9]: 80.7 ng/mL | Kp at 0.08 h [10]: 1.07 | concentration at 6 h [11]: 680 ng/g | Kp at 1 h [12]: 2.78 | inhibition [13]: Active | inhibition [14]: Active | concentration at 0.35 h [15]: 138 ng/mL | concentration at 12 h [16]: 159 ng/g | concentration at 0.35 h [17]: 426 ng/mL | concentration at 0.08 h [18]: 175 ng/mL | Kp at 3 h [19]: 1.73 | concentration at 0.08 h [20]: 1660 ng/g | Kp at 0.08 h [21]: 1.05 | concentration at 0.35 h [22]: 680 ng/g | Kp at 1 h [23]: 1.67 | Kp at 6 h [24]: 1.81 | concentration at 6 h [25]: 5.13 ng/g | concentration at 3 h [26]: 3.35 ng/mL | concentration at 1 h [27]: 225 ng/g | concentration at 3 h [28]: 9.01 ng/g | inhibition [29]: Active | concentration at 0.08 h [30]: 1580 ng/mL | concentration at 12 h [31]: 3.9 ng/g | concentration at 3 h [32]: 5.78 ng/g | concentration at 6 h [33]: 4.52 ng/g
